From PubChem BioAssay AID296 (DTP/NCI, 2004)
Several values for one entry are separate records, joined by “and”; a condition that tells them apart may be missing. Identical values can stand only once. Records with an inconclusive call do not appear.

Tested on: MX-1 breast xenograft, nude mice, tumor weight T/C
Experiment: NCI In Vivo Anticancer Drug Screen. Data for tumor model Human Mammary Carcinoma MX-1 Xenograft (intrarenal inoculation) in NU/NU Swiss (nude) mice
Settings: endpoint: mean tumor weight change, higher = larger tumour
Protocol: The antitumor activity of compounds was measured in mice bearing transplantable tumors. Survival or tumor size were measured and the results are expressed as the measurement made in the treated group (T) divided by the measurement made in the vehicle treated control group (C). The tumor model used in this assay is Human Mammary Carcinoma MX-1 Xenograft (intrarenal inoculation) in NU/NU Swiss (nude) mice

[1] = dose: 2.0 mg/kg/injection, schedule: Q01DX010 (sc), vehicle: saline
[2] = dose: 300.0 mg/kg/injection, schedule: Q04DX003 (sc), vehicle: saline
[3] = dose: 1200.0 mg/kg/injection, schedule: Q04DX003 (sc), vehicle: saline

CO[C@H](C(=O)[C@@H](O)[C@@H](C)O)[C@@H]1Cc2cc3cc(OC4CC(OC5CC(O)C(O)C(C)O5)C(O)C(C)O4)c(C)c(O)c3c(O)c2C(=O)[C@H]1OC1CC(OC2CC(OC3CC(C)(O)C(O)C(C)O3)C(O)C(C)O2)C(O)C(C)O1 (stereo partly specified)
T/C (dose: 0.25 mg/kg/injection, schedule: Q01DX010 (sc), vehicle: saline): 86 % of control | T/C (dose: 0.25 mg/kg/injection, schedule: Q04DX003 (sc), vehicle: saline): 105 % of control | T/C (dose: 0.5 mg/kg/injection, schedule: Q04DX003 (sc), vehicle: saline): 72 % of control | T/C (dose: 0.75 mg/kg/injection, schedule: Q04DX003 (sc), vehicle: saline): 66 % of control | T/C (dose: 1.0 mg/kg/injection, schedule: Q04DX003 (sc), vehicle: saline): 42 % of control | T/C (dose: 1.5 mg/kg/injection, schedule: Q04DX003 (sc), vehicle: saline): 26 % of control | T/C [1]: -98 % of control | T/C (dose: 2.0 mg/kg/injection, schedule: Q04DX003 (sc), vehicle: saline): -34 % of control

CC1CN1C(=O)NCCCCCCNC(=O)N1CC1C (stereo unspecified)
T/C (dose: 5.0 mg/kg/injection, schedule: Q04DX003 (sc), vehicle: Klucel (hydroxypropylcellulose) (HPC)): 21 % of control | T/C (dose: 40.0 mg/kg/injection, schedule: Q04DX003 (sc), vehicle: Klucel (hydroxypropylcellulose) (HPC)): -86 % of control and -63 % of control

Cc1ccc(S(=O)(=O)N/N=C/C(=O)O)cc1
T/C (dose: 25.0 mg/kg/injection, schedule: Q01DX010 (sc), vehicle: Klucel (hydroxypropylcellulose) (HPC)): 90 % of control | T/C (dose: 50.0 mg/kg/injection, schedule: Q01DX010 (sc), vehicle: Klucel (hydroxypropylcellulose) (HPC)): 103 % of control | T/C (dose: 400.0 mg/kg/injection, schedule: Q01DX010 (sc), vehicle: Klucel (hydroxypropylcellulose) (HPC)): 58 % of control | T/C (dose: 800.0 mg/kg/injection, schedule: Q01DX010 (sc), vehicle: Klucel (hydroxypropylcellulose) (HPC)): 71 % of control

c1cc(NC2CCCCC2)ccc1CN1CCOCC1
T/C (dose: 50.0 mg/kg/injection, schedule: Q01DX010 (sc), vehicle: saline + Tween-80 + alcohol): 66 % of control | T/C (dose: 100.0 mg/kg/injection, schedule: Q01DX010 (sc), vehicle: saline + Tween-80 + alcohol): 38 % of control | T/C (dose: 200.0 mg/kg/injection, schedule: Q01DX010 (sc), vehicle: saline + Tween-80 + alcohol): 81 % of control | T/C (dose: 400.0 mg/kg/injection, schedule: Q01DX010 (sc), vehicle: saline + Tween-80 + alcohol): 61 % of control

N#C[C@H](OC1OC(COC2OC(CO)C(O)C(O)C2O)C(O)C(O)C1O)c1ccccc1 (stereo partly specified)
T/C (dose: 450.0 mg/kg/injection, schedule: Q04DX003 (sc), vehicle: saline): 63 % of control | T/C (dose: 900.0 mg/kg/injection, schedule: Q04DX003 (sc), vehicle: saline): 69 % of control | T/C (dose: 1800.0 mg/kg/injection, schedule: Q04DX003 (sc), vehicle: saline): 70 % of control | T/C (dose: 3600.0 mg/kg/injection, schedule: Q04DX003 (sc), vehicle: saline): 67 % of control

CCOC(=O)N(C)N=NC
T/C (dose: 15.0 mg/kg/injection, schedule: Q04DX003 (ip), vehicle: saline): 97 % of control | T/C (dose: 30.0 mg/kg/injection, schedule: Q04DX003 (ip), vehicle: saline): 95 % of control | T/C (dose: 60.0 mg/kg/injection, schedule: Q04DX003 (ip), vehicle: saline): 71 % of control | T/C (dose: 120.0 mg/kg/injection, schedule: Q04DX003 (ip), vehicle: saline): 52 % of control

Cn1cc(C2NC(=O)c3ccccc3N2)c2ccccc21 (stereo unspecified)
T/C (dose: 150.0 mg/kg/injection, schedule: Q04DX003 (sc), vehicle: Klucel (hydroxypropylcellulose) (HPC)): 113 % of control | T/C (dose: 1200.0 mg/kg/injection, schedule: Q04DX003 (sc), vehicle: Klucel (hydroxypropylcellulose) (HPC)): 108 % of control

COc1ccc(CC2C(=O)NC(C)C(=O)N(C)C3C(=O)N(C)C(Cc4ccc(O)c(c4)Oc4ccc(cc4)C3O)C(=O)NC(C)C(=O)NC(C)C(=O)N2C)cc1 (stereo unspecified)
T/C (dose: 0.5 mg/kg/injection, schedule: Q01DX010 (sc), vehicle: saline with Tween-80): 78 % of control | T/C (dose: 1.0 mg/kg/injection, schedule: Q01DX010 (sc), vehicle: saline with Tween-80): 51 % of control | T/C (dose: 2.0 mg/kg/injection, schedule: Q01DX010 (sc), vehicle: saline with Tween-80): 34 % of control

C=CC(=O)NCNC(=O)C=C
T/C (dose: 50.0 mg/kg/injection, schedule: Q01DX010 (sc), vehicle: saline): 82 % of control | T/C (dose: 100.0 mg/kg/injection, schedule: Q01DX010 (sc), vehicle: saline): 91 % of control

CO[C@@]12[C@@H]3N[C@@H]3CN1C1=C(C(=O)C(NCCc3ccccn3)=C(C)C1=O)[C@@H]2COC(N)=O
T/C (dose: 6.25 mg/kg/injection, schedule: Q04DX003 (ip), vehicle: saline with Tween-80): -84 % of control | T/C (dose: 12.5 mg/kg/injection, schedule: Q04DX003 (ip), vehicle: saline with Tween-80): -21 % of control | T/C (dose: 25.0 mg/kg/injection, schedule: Q04DX003 (ip), vehicle: saline with Tween-80): -95 % of control

CCCCC(=O)OCC(=O)[C@]1(O)Cc2c(O)c3c(c(O)c2[C@@H](OC2CC(NC(=O)C(F)(F)F)C(O)C(C)O2)C1)C(=O)c1c(OC)cccc1C3=O (stereo partly specified)
T/C (dose: 64.0 mg/kg/injection, schedule: Q01DX010 (sc), vehicle: distilled water + Tween-80): 91 % of control | T/C (dose: 128.0 mg/kg/injection, schedule: Q01DX010 (sc), vehicle: distilled water + Tween-80): 56 % of control | T/C (dose: 256.0 mg/kg/injection, schedule: Q01DX010 (sc), vehicle: distilled water + Tween-80): 34 % of control

Nc1ncn(C2OC(CO)C(O)C2O)c(=O)n1 (stereo unspecified)
T/C (dose: 0.38 mg/kg/injection, schedule: Q01DX010 (sc), vehicle: saline): 69 % of control | T/C (dose: 0.75 mg/kg/injection, schedule: Q01DX010 (sc), vehicle: saline): 58 % of control and 68 % of control | T/C (dose: 1.5 mg/kg/injection, schedule: Q01DX010 (sc), vehicle: saline): 25 % of control | T/C (dose: 2.5 mg/kg/injection, schedule: Q04DX003 (sc), vehicle: saline): 50 % of control | T/C (dose: 20.0 mg/kg/injection, schedule: Q04DX003 (sc), vehicle: saline): 6 % of control and 14 % of control | T/C (dose: 150.0 mg/kg/injection, schedule: Q04DX003 (sc), vehicle: saline): 8 % of control | T/C (dose: 200.0 mg/kg/injection, schedule: Q04DX003 (sc), vehicle: saline): 52 % of control | T/C (dose: 200.0 mg/kg/injection, schedule: Q04DX003 (sc), vehicle: suspension in saline): 5 % of control and 7 % of control | T/C [2]: 7 % of control | T/C (dose: 400.0 mg/kg/injection, schedule: Q04DX003 (sc), vehicle: saline): 15 % of control | T/C (dose: 600.0 mg/kg/injection, schedule: Q04DX003 (sc), vehicle: saline): 2 % of control | T/C (dose: 800.0 mg/kg/injection, schedule: Q04DX003 (sc), vehicle: saline): 5 % of control | T/C [3]: -29 % of control | T/C (dose: 1600.0 mg/kg/injection, schedule: Q04DX003 (sc), vehicle: saline): 2 % of control | T/C (dose: 1600.0 mg/kg/injection, schedule: Q04DX003 (sc), vehicle: suspension in saline): 15 % of control

OCCOCC(F)(F)F
T/C [2]: 82 % of control | T/C [3]: 86 % of control | T/C (dose: 2400.0 mg/kg/injection, schedule: Q04DX003 (sc), vehicle: saline): 49 % of control

Cn1c(=O)[nH]c2nncnc2c1=O
T/C (dose: 125.0 mg/kg/injection, schedule: Q04DX003 (sc), vehicle: water): 92 % of control

CN(C)C=O
T/C (dose: 200.0 mg/kg/injection, schedule: Q01DX010 (sc), vehicle: saline): 10 % of control | T/C (dose: 1896.0 mg/kg/injection, schedule: Q01DX010 (sc), vehicle: suspension in saline): 1 % of control | T/C (dose: 2844.0 mg/kg/injection, schedule: Q01DX010 (sc), vehicle: suspension in saline): -44 % of control | T/C (dose: 4266.0 mg/kg/injection, schedule: Q01DX010 (sc), vehicle: suspension in saline): -11 % of control

Nc1ccc(Cl)cc1N
T/C (dose: 450.0 mg/kg/injection, schedule: Q04DX003 (sc), vehicle: saline with Tween-80): 116 % of control | T/C (dose: 900.0 mg/kg/injection, schedule: Q04DX003 (sc), vehicle: saline with Tween-80): 73 % of control | T/C (dose: 1800.0 mg/kg/injection, schedule: Q04DX003 (sc), vehicle: saline with Tween-80): 71 % of control

C1CCC2C[N-]CCC2C1.C1CCC2C[N-]CCC2C1.C1CCC2C[N-]CCC2C1.C1CCC2C[N-]CCC2C1.[Cl][Rh][Cl] (stereo unspecified)
T/C (dose: 18.0 mg/kg/injection, schedule: Q04DX003 (sc), vehicle: saline with Tween-80): 107 % of control | T/C (dose: 36.0 mg/kg/injection, schedule: Q04DX003 (sc), vehicle: saline with Tween-80): 103 % of control | T/C (dose: 72.0 mg/kg/injection, schedule: Q04DX003 (sc), vehicle: saline with Tween-80): 86 % of control | T/C (dose: 144.0 mg/kg/injection, schedule: Q04DX003 (sc), vehicle: saline with Tween-80): 78 % of control

CC[C@H]1CN2CCc3cc(OC)c(OC)cc3[C@@H]2C[C@@H]1C[C@H]1NCCc2cc(OC)c(OC)cc21
T/C [1]: 114 % of control | T/C (dose: 4.0 mg/kg/injection, schedule: Q01DX010 (sc), vehicle: saline): 108 % of control
